The subject of test [1] is pseudotyped VSVs harboring SARS-CoV S (SARS-Spp). Description: microbe, parasite or virus in culture. It is filed as cell-based. The note with it: for EC50: Severe acute respiratory syndrome coronavirus.
In test [2] the test system is pseudotyped VSVs harboring MERS-CoV S (MERS-Spp). It is filed as cell-based.

For the compound `CN1CCN([C@@H](c2ccccc2)c2ccc(Cl)cc2)CC1` [(S)-CCZ, (S)-chlorcyclizine], the concentration giving a half-maximal response (EC50) was 4.59 µM in test [1], 3.21 µM in test [1] (Huh-7) and 6.91 µM in test [1] (MA104).

On to `CCN(CC)CCCC(C)Nc1ccnc2cc(Cl)ccc12` (stereo not shown) [Chloroquine, chloroquine], for which the “inhibition of SARS-Spp entry” value in test [1] was “inhibited”. Further, the “inhibition of MERS-Spp entry” value in test [2] is given as “reduced”.

For the compound `CCN1CCN(C(c2ccc(Cl)cc2)c2ccc(Cl)cc2)CC1` [Dichlorcyclizine, dichlorcyclizine], the figures for the EC50 in test [1], in test [1] (Huh-7) and in test [1] (MA104) were 5.76 µM, 0.87 µM and 9.92 µM, respectively.

In the case of `CCOC(=O)[C@H]1O[C@@H]1C(=O)N[C@@H](CC(C)C)C(=O)NCCC(C)C` [E-64d], the “inhibition of SARS-Spp entry” value in test [1] is reported as “inhibited”. The “inhibition of MERS-Spp entry” value in test [2] was “reduced”.

Consider `Cc1cc(-c2nc(CN3CCC(C(=O)NCCCN4C[C@H](C)C[C@H](C)C4)CC3)co2)ccc1F` [Fluoxazolevir, fluoxazolevir], for which the concentration giving a half-maximal response (EC50) in test [1] worked out at 1.46 µM; in test [1] (Huh-7), 1.75 µM; in test [1] (MA104), 6.49 µM.

By EC50 is commonly meant the concentration giving half of the maximal effect. Low readings indicate higher potency in that assay, high ones lower potency in that assay.

These data come from paper PMC8749431 (mBio, 2022).
